Measurements reported in patent publication US20080274892A1, “Novel Haloalkylsulfonanilide Derivative, Herbicide, and Method of Use Thereof” (priority 2005, published 2008).

Tests used:
bulrush [1] = assay: Test Example 1: herbicidal efficacy on rice paddy weeds pre-emergence; assay type: in vivo, Scirpus juncoides; details: dosage 1000 g/ha, 21 days
[2] = test system: paddy rice plant (cultivar: Nihonbare); assay: Test Example 3: phytotoxicity test for transplanted paddy rice plant; assay type: in vivo; details: dosage 1000 g/ha; transplanted rice, treated 5 days after transplantation; 21 days after treatment
How it was run: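 Clay loam soil was placed in a 75 cm^2 plastic pot and flooded to a water depth of 5 cm. Two Nihonbare paddy rice plants at the two-leaf stage were transplanted 1 cm deep and grown in a hot house. After treatment, pots stayed in the hot house for 21 days, and phytotoxicity was then graded against an untreated control.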

[3] = test system: transplanted paddy rice plant and Bulrush; assay: Test Example 5: selectivity between transplanted paddy rice plant and weeds; assay type: in vivo; details: (highest dosage with no phytotoxicity to paddy rice)/(lowest dosage with effective level 4 on Bulrush); rice 3000-100 g/ha, Bulrush 300-10 g/ha; 21 days
How it was run: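 Scoring ran 21 days after treatment in a hothouse on a 0–4 scale (4 = 90–100%, 3 = 70–89%, 2 = 40–69%, 1 = 1–39%, 0 = none) relative to untreated plants. Post-emergence bulrush received 10, 30, 100 and 300 g/ha active ingredient. Transplanted rice received 100, 300, 1000 and 3000 g/ha to assess crop injury.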

false pimpernel [4] = assay: Test Example 2: herbicidal efficacy on rice paddy weeds post-emergence; assay type: in vivo, Lindernia pyxidaria; details: dosage 1000 g/ha; post-emergence, one leaf stage; 21 days after treatment
false pimpernel [5] = assay: Test Example 1: herbicidal efficacy on rice paddy weeds pre-emergence; assay type: in vivo, Lindernia pyxidaria; details: dosage 1000 g/ha, 21 days
barnyard glass = assay: Test Example 2: herbicidal efficacy on rice paddy weeds post-emergence; assay type: in vivo, Echinochloa crus-galli; details: dosage 1000 g/ha; post-emergence, one leaf stage; 21 days after treatment
How it was run: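 Efficacy on paddy weeds was scored on a 0 to 4 growth-inhibition scale: 4 for 90%-100%, 3 for 70%-89%, 2 for 40%-69%, 1 for 1%-39% and 0 for 0%. Barnyard glass was grown in clay loam in 75 cm^2 pots under 5 cm of water in a hot house. It was compared with untreated pots 21 days after treatment.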

bulrush [6] = assay: Test Example 4: low dosage test for rice paddy weeds; assay type: in vivo, Scirpus juncoides; details: 300 g/ha as an active ingredient; plants treated at the one leaf stage; 21 days after treatment; vs untreated control
How it was run: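 Compound applied as a formulation at 300 g/ha to one-leaf bulrush grown in flooded clay loam (5 cm water) in a hot house. After 21 days, growth inhibition versus untreated plants rated on a 0–4 scale, with 4 meaning 90–100%.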

bulrush [7] = assay: Test Example 2: herbicidal efficacy on rice paddy weeds post-emergence; assay type: in vivo, Scirpus juncoides; details: dosage 1000 g/ha; post-emergence, one leaf stage; 21 days after treatment

| SMILES | Bulrush pre (herbicidal efficacy grade) (bulrush [1]) | melting point | Phytotoxicity to paddy rice [2] | Selective Index [3] | False pimpernel post (herbicidal efficacy grade) (false pimpernel [4]) | False pimpernel pre (herbicidal efficacy grade) (false pimpernel [5]) | Burnyard grass post (herbicidal efficacy grade) (barnyard glass) | Herbicide effect to Bulrush (bulrush [6]) | Bulrush post (herbicidal efficacy grade) (bulrush [7]) |
| --- | --- | --- | --- | --- | --- | --- | --- | --- | --- |
| CC1CN(Cc2ccccc2NS(=O)(=O)C(F)(F)F)C(=S)O1 (stereo not drawn) [Compound No. 1-21, 5-methyl-3-[2-(trifluoromethanesulfonylamino)benzyl]-2-oxazolidinethione] | 4 (90%-100% of herbicidal efficacy or phytotoxicity) | 74 to 76 °C | 0 (0% of herbicidal efficacy or phytotoxicity) | 33 | 3 (70%-89% of herbicidal efficacy or phytotoxicity) | 4 (90%-100% of herbicidal efficacy or phytotoxicity) | 4 (90%-100% of herbicidal efficacy or phytotoxicity) | 4 (90%-100% of herbicidal efficacy or phytotoxicity) | 4 (90%-100% of herbicidal efficacy or phytotoxicity) |
| CCC1CN(Cc2ccccc2N(C(=O)OCC(C)C)S(=O)(=O)C(F)(F)F)C(=O)O1 (stereo not drawn) [Compound No. 1-24, 5-ethyl-3-{2-[N-(isobutoxycarbonyl)-N-(trifluoromethanesulfonyl)amino]benzyl}-2-oxazolidinone] | 4 (90%-100% of herbicidal efficacy or phytotoxicity) | 85 to 87 °C | 0 (0% of herbicidal efficacy or phytotoxicity) | 33 | 4 (90%-100% of herbicidal efficacy or phytotoxicity) | 4 (90%-100% of herbicidal efficacy or phytotoxicity) | 4 (90%-100% of herbicidal efficacy or phytotoxicity) | 4 (90%-100% of herbicidal efficacy or phytotoxicity) | 4 (90%-100% of herbicidal efficacy or phytotoxicity) |
| CC1(C)CN(Cc2ccccc2NS(=O)(=O)C(F)(F)F)C(=O)S1 [Compound No. 1-184, 5,5-dimethyl-3-[2-(trifluoromethanesulfonylamino)benzyl]thiazolidin-2-one] | 4 (90%-100% of herbicidal efficacy or phytotoxicity) | 115 to 117.5 °C | 1 (1%-39% of herbicidal efficacy or phytotoxicity) | 10 | 4 (90%-100% of herbicidal efficacy or phytotoxicity) | 4 (90%-100% of herbicidal efficacy or phytotoxicity) | 4 (90%-100% of herbicidal efficacy or phytotoxicity) | 4 (90%-100% of herbicidal efficacy or phytotoxicity) | 4 (90%-100% of herbicidal efficacy or phytotoxicity) |
